Reference: US20220175761A1, “BI-LIGAND DRUG CONJUGATE AND USE THEREOF” (COHERENT BIOPHARMA (SUZHOU), LIMITED, priority 2019, published 2022)
Square brackets hold non-standard residues; d marks the D form. Peptide text beside a SMILES is read from it. * marks the point of attachment. Dolaproine = CO[C@@H]([C@@H]1CCCN1)[C@@H](C)C(=O)O; Dil = CC[C@H](C)[C@H](NC)[C@@H](CC(=O)O)OC; X1 = C[C@@H](N*)[C@@H](O)c1ccccc1; NMeV = CN[C@H](C(=O)O)C(C)C

Tests used:
BR1283 = assay: Tumor growth inhibition in HuPrime xenograft breast cancer PDX model; type: in vivo, BALB/c-nude mice; settings: 3 mg/kg, tail vein
Protocol: (§1) Experimental scheme: The tumor tissue mass were prepared and subcutaneously inoculated into the anterior right flank of BALB/c-nude mice. When the tumor volume expanded to 80-160 mm^3, a randomized grouping was performed, and a model control group and administration groups were set. The mice were administrated from the first day of grouping, wherein the administration dose was adjusted according to the latest weight measurement. The mice were administrated via tail vein injection at an administration volume of 10 μl/g and an administration dosage of 3 mg/kg. After grouping and administration, the effects of tumor growth and treatment on normal behaviors of animals, specifically including the activity of experimental animals, food intake and drinking status, weight gain or loss status, and other abnormal conditions in eyes, hair, etc., were monitored. After grouping and administration, the weight of mice was measured twice a week to calculate the rate of weight change; at the same time, the long diameter and short diameter of the tumor were measured with a vernier caliper, and the tumor volume, relative tumor proliferation rate, tumor volume inhibition rate and other indicators were calculated. The formula of tumor volume is TV=0.5 a×b^2, wherein a is the long diameter of a tumor and b is the short diameter of a tumor.

BR0438 = assay: as above; type: in vivo, BALB/c-nude mice; settings: 3 mg/kg, tail vein
Protocol: as §1

FOLH1 = FOLH1 (Homo sapiens, UniProt Q04609); assay: BIAcore T200: binding of FOLH1 to compound-FOLR1 complex; design: purchased Sino Biologicals (FOLH1); R&D System (FOLR1) 15877-H07H (FOLH1); 5646-FR (FOLR1)
Description: CM5 chip was conjugated with a ligand: FOLR1 (R&D System, Cat #: 5646-FR)
Analyte: CB-20BK, FA-MMAE and FOLH1 (Sino Biologicals, Cat #: 15877-H07H)
According to BIAcore T200 (GE) operating manual, FOLR1 was conjugated to the CM5 chip; CB-20BK or FA-MMAE was loaded first, and then FOLH1 was loaded; and the binding of FOLH1 to the CB-20BK-FOLR1 complex was detected.

[1] = Body weight and clinical observation in the LU2505 study; type: in vivo, BALB/c nude mice; settings: 0.375 mg/kg on day 1, 8, 15, D22
Description: (§2) The active substance of test sample CBP-1018 is CB-20BK, which is obtained by mixing CB-20BK with auxiliary materials and then lyophilizing same.

[2] = test system: lung cancer PDX model LU2505; assay: Effectiveness in lung cancer LU2505 model (PDX model); type: in vivo, BALB/c nude mice
Description: as §2

[3] = 0.375 mg/kg on day 1, 8, 15, D22

FOLH1, sequence (Q04609 44-750 limits assumed): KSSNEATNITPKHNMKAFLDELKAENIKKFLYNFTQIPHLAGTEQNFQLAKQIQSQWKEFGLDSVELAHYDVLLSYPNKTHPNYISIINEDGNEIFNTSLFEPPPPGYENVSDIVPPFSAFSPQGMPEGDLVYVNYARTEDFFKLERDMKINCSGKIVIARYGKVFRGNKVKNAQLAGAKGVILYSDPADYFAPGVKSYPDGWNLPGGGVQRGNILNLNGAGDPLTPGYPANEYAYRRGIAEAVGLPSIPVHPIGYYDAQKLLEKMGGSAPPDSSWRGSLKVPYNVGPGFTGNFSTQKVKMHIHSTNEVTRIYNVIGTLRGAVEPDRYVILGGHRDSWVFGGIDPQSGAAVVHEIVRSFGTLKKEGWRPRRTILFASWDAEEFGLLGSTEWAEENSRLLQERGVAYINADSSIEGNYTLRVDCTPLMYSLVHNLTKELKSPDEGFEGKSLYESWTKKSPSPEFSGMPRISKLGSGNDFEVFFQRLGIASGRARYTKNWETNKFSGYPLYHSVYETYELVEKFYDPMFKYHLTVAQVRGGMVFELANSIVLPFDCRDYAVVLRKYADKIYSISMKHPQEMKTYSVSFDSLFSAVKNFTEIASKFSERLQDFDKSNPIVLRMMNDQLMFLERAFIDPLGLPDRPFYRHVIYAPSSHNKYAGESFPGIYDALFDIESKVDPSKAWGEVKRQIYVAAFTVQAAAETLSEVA
FOLH1, sequence (P15328 25-233 partner limits assumed): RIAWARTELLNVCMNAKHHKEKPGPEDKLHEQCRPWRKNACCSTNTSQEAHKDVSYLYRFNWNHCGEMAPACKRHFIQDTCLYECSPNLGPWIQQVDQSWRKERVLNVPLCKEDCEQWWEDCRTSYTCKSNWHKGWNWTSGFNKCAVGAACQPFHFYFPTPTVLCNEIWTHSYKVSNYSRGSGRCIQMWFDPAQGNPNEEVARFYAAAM

CC[C@H](C)[C@@H]([C@@H](CC(=O)N1CCC[C@H]1[C@H](OC)[C@@H](C)C(=O)N[C@H](C)[C@@H](O)c1ccccc1)OC)N(C)C(=O)[C@@H](NC(=O)[C@H](C(C)C)N(C)C(=O)OCc1ccc(NC(=O)C(CCCNC(N)=O)NC(=O)[C@@H](NC(=O)CCCCCN2C(=O)CC(SC[C@H](NC(=O)[C@H](CCCCN)NC(=O)[C@H](CC(=O)O)NC(=O)[C@H](CC(=O)O)NC(=O)Cc3ccc(CNC(=O)NCCCC[C@H](NC(=O)N[C@@H](CCC(=O)O)C(=O)O)C(=O)O)cc3)C(=O)N[C@@H](CCCCNC(=O)CC[C@H](NC(=O)c3ccc(NCc4cnc5[nH]c(N)nc(=O)c5n4)cc3)C(=O)O)C(N)=O)C2=O)C(C)C)cc1)C(C)C (stereo partly drawn) [CB-20BK]
TGI (BR1283): 96.49%
TGI (BR0438): 70.74%
Binding of compound-FOLR1 complex to FOLH1 solution (FOLH1; FOLH1 concentration 0.0625 μM): −0.9 RU
Binding of compound-FOLR1 complex to FOLH1 solution (FOLH1; FOLH1 concentration 0.125 μM): 4.6 RU
Binding of compound-FOLR1 complex to FOLH1 solution (FOLH1; FOLH1 concentration 0.25 μM): 14.1 RU
Binding of compound-FOLR1 complex to FOLH1 solution (FOLH1; FOLH1 concentration 0.5 μM): 23.9 RU
amount of FOLH1 bound to compound-FOLR1 complex (in words) (FOLH1; FOLH1 solution at a high concentration): significantly higher than that bound to an FA-MMAE-FOLR1 complex

CC[C@H](C)[C@@H]([C@@H](CC(=O)N1CCC[C@H]1[C@H](OC)[C@@H](C)C(=O)N[C@H](C)[C@@H](O)c1ccccc1)OC)N(C)C(=O)[C@@H](NC(=O)[C@@H](NC)C(C)C)C(C)C [MMAE, monomethyl auristatin E] (H-[NMeV]V[Dil][Dolaproine]-X1)
Weight [1]: 23.5 g
tumor growth inhibition effect (in words) ([2]; 0.375 mg/kg): clear tumor growth inhibition effect
Tumor growth inhibition rate TGI % [2, 3]: 48.97%
Tumor volume [2, 3]: 1132.61 mm^3
Tumor weight ([2]; 0.375 mg/kg on day 1, 8, 15, D29): 1597.1 (D29) mg
